# Read-outs that look alike come from different tables or passages of the source.
# What was measured:
# [1] = Plasma levels and toxicity signs in treated piglets; assay type: in vivo, piglet; settings: for Cmax: pig, plasma, 5 mg/kg, 5 mg/kg BID
# [2] = 14-day multidose rat toxicity study; assay type: in vivo; settings: rats
# Procedure: A control group of male and female rats were administered vehicle only for controls. […] Observations of feeding and general health were made twice daily. Clinical assessments were made at 1 h after each treatment. Blood was collected for hematology and blood chemistry before the first dose and prior to euthanasia. Necropsy and histology of organs (Liver, heart, lung, kidney, spleen, thymus, brain, spinal cord, nerves of the front and back legs, including muscle, bone marrow femur, stomach, small and large intestine, including lymph nodes, and femur and sternum, including epiphyseal plates, distal hind limb, and thyroid gland) were performed after euthanasia.
# [3] = Metabolite identification in hepatocytes; assay type: in vitro ADME, mice, rats, dogs, monkeys, and humans; settings: all tested species, product 1770-O-glucuronide
# Procedure: BKI-1841 was also evaluated in these assays (Table 1). All results from these assays were favorable, including falling within the solubility range that correlated with efficacy for the AC scaffold ([17]).
# [4] = test system: Nluc expressing C. parvum; parameters: method as in PMID 30830766; settings: cited from earlier work
# [5] = target: T1, human tyrosine kinase SRC (HsSRC) (Homo sapiens, UniProt P12931); parameters: method as in PMID 30830766; settings: read-out: HsSR IC50; cited from earlier work
# HepG2 cells = test system: HepG2 cells; parameters: method as in PMID 30830766; settings: cited from earlier work
# CRL-8155 cells = test system: CRL-8155 cells; parameters: method as in PMID 30830766; settings: cited from earlier work
# [6] = test system: Nluc expressing C. parvum; parameters: method as in PMID 30830766; settings: IFN-γ KO mice, twice daily (BID) for 5 days; cited from earlier work
# [7] = parameters: method as in PMID 30830766; settings: mice; cited from earlier work
# [8] = test system: Nluc expressing C. parvum; test: Nluc expressing C. parvum in vitro growth inhibition in infected HCT-8 cells; assay type: cell-based; settings: Cryptosporidium parvum
# Excerpt: (§1) Methods for synthesis of BKIs ([17], [23]), efficacy against Nluc expressing C. parvum in infected adult IFN-γ KO mice ([6], [9]), in vivo mouse GI tract tissue exposure by LC/MS-MS analysis ([18], [28]), PK analysis of mouse plasma and brain tissue BKI concentrations by LC/MS-MS analysis ([29]), in vivo rat and dog cardiotoxicity screen ([30]), efficacy against IOWA-II strain C. parvum in infected neonatal calves ([13]), efficacy against C. hominis in infected piglets ([12]), in vitro inhibition of C. parvum CDPK1 (CpCDPK1) and human tyrosine kinase SRC (HsSRC) activity ([31]), in vitro inhibition of hERG ([32]), Nluc expressing C. parvum in vitro growth inhibition in infected HCT-8 cells ([6]), in vitro cytotoxicity in CRL-8155 and HepG2 cells ([29]), and mouse locomotor activity box ([33], [34]) have all been previously described. Analytes were measured by LC/MS-MS on an Acquity ultra performance liquid chromatography (UPLC) system in tandem with a Xevo TQ-S mass spectrometer (Waters, Milford, MA, USA).
# [9] = target: T1, human tyrosine kinase SRC (HsSRC); test: In vitro inhibition of HsSRC; assay type: biochemical; settings: read-out: HsSR IC50
# Excerpt: as §1
# [10] = In vitro cytotoxicity in CRL-8155 cells; assay type: cell-based; settings: human
# Excerpt: as §1
# [11] = Cardiovascular testing in anesthetized rats; assay type: in vivo, rat; settings: for HR / MAP / dP/dt@50: rat
# Excerpt: as §1
# T1 sequence (P12931 whole entry): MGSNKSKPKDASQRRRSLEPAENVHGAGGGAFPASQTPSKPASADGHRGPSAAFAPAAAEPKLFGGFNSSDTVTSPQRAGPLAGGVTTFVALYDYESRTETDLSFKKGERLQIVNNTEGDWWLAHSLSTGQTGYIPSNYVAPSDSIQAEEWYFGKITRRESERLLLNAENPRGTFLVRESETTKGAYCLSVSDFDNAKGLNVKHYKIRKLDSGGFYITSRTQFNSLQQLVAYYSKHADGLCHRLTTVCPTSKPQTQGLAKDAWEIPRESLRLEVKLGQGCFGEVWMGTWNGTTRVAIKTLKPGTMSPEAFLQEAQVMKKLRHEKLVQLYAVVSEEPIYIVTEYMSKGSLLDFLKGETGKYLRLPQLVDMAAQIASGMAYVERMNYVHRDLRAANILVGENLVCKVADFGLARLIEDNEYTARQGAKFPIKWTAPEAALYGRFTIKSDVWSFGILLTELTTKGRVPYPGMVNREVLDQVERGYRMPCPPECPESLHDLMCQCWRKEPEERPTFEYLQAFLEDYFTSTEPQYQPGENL
compound,measurement,setting,value
CCOc1ccc2cc(-c3nn(C(C)(C)CCO)c(N)c3C(N)=O)ccc2c1 [BKI-1770],visible signs of toxicity,[1]; 5 mg/kg BID for 5 or 8 days,no visible signs of toxicity
same,Cmax,"[1]; at 2 h post dose 5, read-out: plasma observed Cmax",2100 ± 1400 nM
same,Cmax,"[1]; at 2 h post dose 8, read-out: plasma observed Cmax",900 ± 400 nM
same,plasma concentration,[2]; 15 mg/kg group,2400 nM
same,plasma concentration,[2]; 375 mg/kg group,11800 nM
same,toxicity findings,"[2]; oral 15 mg/kg QD, 14 days",no signs of toxicity
same,toxicity findings,"[2]; oral 75 mg/kg QD, 14 days","some signs of bone toxicity, including thickened epiphyseal plates and increased spongiosa"
same,toxicity findings,[2]; oral 375 mg/kg QD,euthanized after 7 doses due to extreme signs of toxicity
same,main mechanism of metabolism,[3],glucuronylation
same,EC50,[4],0.5 µM
same,IC50,[5],> 10 µM
same,CC50,HepG2 cells,> 80 µM
same,CC50,CRL-8155 cells,> 80 µM
same,minimum efficacious dose,[6],30 mg/kg
same,blood chemistry and histology vs control animals,[7],no apparent abnormalities
CCOc1ccc2cc(-c3nn(C4CCOCC4)c(N)c3C(N)=O)ccc2n1 [BKI-1841],EC50,[8],0.7 µM
same,IC50,[9],> 10 µM
same,CC50,[10],> 80 µM
same,"effects on MAP, HR, left ventricular contractility vs vehicle","[11]; anesthetized rats, 30-minute IV infusions of 3, 10, 30 mg/kg, significant >15%",No significant effects
same,HR,[11]; IV 3 mg/kg,5%
same,MAP,[11]; IV 3 mg/kg,1%
same,dP/dt@50,[11]; IV 3 mg/kg,3%
same,HR,[11]; IV 10 mg/kg,3%
same,MAP,[11]; IV 10 mg/kg,3%
same,dP/dt@50,[11]; IV 10 mg/kg,4%
same,HR,[11]; IV 30 mg/kg,0%
same,MAP,[11]; IV 30 mg/kg,2%
same,dP/dt@50,[11]; IV 30 mg/kg,11%
